According to publication PMC12185792, “Guanylate cyclase activity in moss: revisiting the role of ERECTA-like receptors” (Physiology and Molecular Biology of Plants, 2025):

B1: PpERL1 (Physcomitrium patens ERECTA-like receptor 1) (Physcomitrium patens) (protein)
chain: MSKAPQGPPKLVTFHMGMAPQSFEEMMCLTENLSEKYVAGRGGSSTVYKCTLKNGHSIAIKKLFNYYPQNVREFETELKTLGNIKHRNVVSLRGYSMSSAGNFLFYDFMEYGSLYDHLHGHAKRSKKMDWNTRLKIALGSAQGLAYLHQDCTPQVIHRDVKSCNILLNANMDAHLCDFGLAKNIQPTRTHTSTFVLGTIGYIDPEYAQTSRLNEKSDVYSFGIVLLELLMGKKAVDDEVNLLDWVRSKIEQKNLLEFVDPYVRSTCPSMDHLEKALKLALLCAKQTPSQRPTMYDVAQVLSSLLPVVSPRKPPSYPSPGSKHRRYVDTYSAKPAEGMIASSSTSGGDLLDQFENVINSRNM
notes: intracellular fragment 658-1018 (kinase domain with embedded GC motif 877-893) of 1018 residues; N-terminal GST tag kept (pGEX-6P-2), about 66 kDa; E. coli BL21(DE3)pLysS

Experiments:
[1] = target: T1, PpERL1 (Physcomitrium patens ERECTA-like receptor 1) (Physcomitrium patens, UniProt A0A2K1L2N0); experiment: Kinase-Glo Plus luminescent kinase assay, histone type III; assay type: biochemical; conditions: 10 μM ATP, 5 mM MgCl2, 1 mM DTT, Tris-HCl pH 7.5, 30 °C; inhibition of kinase domain, possibly via GC domain
T1 construct: gene LOC112274326; intracellular fragment 658-1018 (kinase domain with embedded GC motif 877-893) of 1018 residues; N-terminal GST tag kept (pGEX-6P-2), about 66 kDa; E. coli BL21(DE3)pLysS
T1 sequence (A0A2K1L2N0 658-1018): B1 chain

[2] = target: T2, PpERL1 (Physcomitrium patens ERECTA-like receptor 1) (Physcomitrium patens, UniProt A0A2K1L2N0, K890N); experiment: as above; assay type: biochemical; conditions: 10 μM ATP, 5 mM MgCl2, 1 mM DTT, Tris-HCl pH 7.5, 30 °C; inhibition of kinase domain, possibly via GC domain
T2 construct: gene LOC112274326; intracellular fragment 658-1018 (kinase domain with embedded GC motif 877-893) of 1018 residues; N-terminal GST tag kept (pGEX-6P-2), about 66 kDa; E. coli BL21(DE3)pLysS

[3] = substrate: Nc1nc2c(ncn2[C@@H]2O[C@H](COP(=O)(O)OP(=O)(O)OP(=O)(O)O)[C@@H](O)[C@H]2O)c(=O)[nH]1; experiment: guanylate cyclase assay, cGMP by LC-MS/MS; assay type: biochemical, Physcomitrium patens; conditions: GTP 0.1-3 mM, 5 mM MgCl2, 2.5 mM MnCl2, 1 mM DTT, Tris-HCl pH 7.5, 30 °C, no CaCl2

T2 sequence (A0A2K1L2N0 entry or part of it K890N): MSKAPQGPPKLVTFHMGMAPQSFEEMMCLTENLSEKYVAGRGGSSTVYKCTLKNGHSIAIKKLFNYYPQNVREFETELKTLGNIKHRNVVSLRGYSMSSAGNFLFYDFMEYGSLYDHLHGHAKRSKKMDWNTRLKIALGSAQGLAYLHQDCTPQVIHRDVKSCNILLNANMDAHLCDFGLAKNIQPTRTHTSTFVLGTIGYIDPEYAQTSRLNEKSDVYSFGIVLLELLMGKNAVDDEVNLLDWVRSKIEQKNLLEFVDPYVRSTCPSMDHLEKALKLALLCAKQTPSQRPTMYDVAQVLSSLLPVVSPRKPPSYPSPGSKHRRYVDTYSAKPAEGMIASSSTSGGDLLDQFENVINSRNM

Row | Molecule | relative kinase activity at 1 mM GTP [1] | relative kinase activity at 1 mM GTP [2] | Km [3] [mM]
1 | Nc1nc2c(ncn2[C@@H]2O[C@H](COP(=O)(O)OP(=O)(O)OP(=O)(O)O)[C@@H](O)[C@H]2O)c(=O)[nH]1 [GTP] | adding GTP to the reaction mixture led to a significant decrease in kinase activity | the presence of GTP resulted in a slight decrease in kinase activity | –
2 | B1 | – | – | 0.6098
